“And” between values parts separate entries of the source, which are not always exact repeats. Equal entries are not always repeated.
Key:
[1] = tested on: rat paw; test: Histopathological examination of rat paw (H&E, Masson's trichrome); assay type: in vivo; settings: carrageenan-treated rats
Method: The rats’ paws were collected and washed in a saline solution after the end of rat paw experiment. Specimens were fixed in 10% natural formalin for 2 days before being washed overnight with running water. The cleaned samples were dehydrated in ethyl alcohol at increasing percentages, starting with 70% and ending with absolute alcohol. The samples were cleaned by immersing them in xylol for 2 h. For 3 h at 37 °C, the cleared samples were placed in a sealed jar containing 50% paraffin in xylol. The samples were then soaked in melting paraffin for 2 h at 48 °C before being blocked in hard paraffin and sliced into 5-micron slices. The sections were stained with hematoxylin and eosin (H&E) and Masson’s trichrome. Sections were mounted with Canada balsam and covered with a coverslip in preparation for histological examination.

[2] = tested on: carrageenan-induced rat paw edema; test: Carrageenan-induced paw edema in rats; assay type: in vivo; settings: 10 mg/kg orally; for rat paw edema size: evaluated for 5 h, Figure 3; for rat paw edema: after 1 h of dosing
Description: The carrageenan-induced paw edema model was used to evaluate the compounds’ anti-inflammatory activity. Only carrageenan was given to the control animals. The treatment effect was tracked by observing the improvement of rat paw edema in response to drug administration. Carrageenan injections caused rat paws to grow from 0.3 cm to 0.8 cm in size.
Following in vitro testing, three compounds with the highest selectivity against COX-2 were chosen for in vivo investigations utilizing the rat paw edema assay. After subcutaneous carrageenan injection into the rodent’s paw, plasma extravasation, tissue proliferation, plasma protein release, and neutrophilic extravasation, all of which are caused by arachidonic acid digestion, produced inflammation. Following the carrageenan infusion, the main phase lasted 2 h. The following process is remodeling, which takes 5 h and begins at the 3rd h. The main stage is distinguished by the appearance of histamine and serotonin. The development of prostaglandins, proteases, and lysosomes causes the second stage of edema. Adult male albino rats weighing 120–150 g were divided into seven groups, each with seven rats, and kept at 25 °C with a 12-h light/dark cycle. Subplantar injection of 0.2 mL of 1% carrageenan solution in 0.9 percent saline into the right hind paw of rats was used to induce swelling and inflammation. To determine the inflammation generated by carrageenan, the Vernier Caliper was used to measure the thickness of rat paws before and after injection. […] Paw edema was measured at 0, 0.5, 1, 2, 3, 4, and 5 h after the drug was administered. The edema inhibition was calculated by calculating the difference in thicknesses between the treated and control groups.

[3] = tested on: Raw264.7 cells; test: In vitro cytotoxicity, WST-1 assay; assay type: cell-based, mouse; settings: 1 µM, 24 h, presence or absence of LPS (1 ug/mL)
Method: Raw264.7 cells were used to test the effects of compounds 1, 2, and 3 on cell viability and proliferation. Raw264.7 cells were treated for 24 h in a 96-well plate with compounds (1 µM) in the presence or absence of LPS (1 ug/mL). WST1 reagent was added to each well after treatment and incubated for an additional 2 h. Following that, the OD450/620 ratio was determined. […] However, all compounds had no effect on WST1 values or cell morphology in Raw264.7 cells. Raw264.7 cells in a 96-well plate were treated with our compounds (1 uM) in the presence or absence of LPS (1 ug/mL) for 24 h. After treatment, the WST1 reagent was added into each well and incubated for an additional 2 h. After that, OD450/620 was measured.
Dulbecco’s modified Eagle’s minimum essential medium containing 5% heat-inactivated fetal bovine serum was used to maintain Raw264.7 cells (ATCC). Raw264.7 cells ([…]) in a 96-well plate were treated for 24 h with the indicated compounds at 1 µM or vehicle (DMSO) in the presence or absence of LPS (1 µg/mL) to detect cell viability based on mitochondrial activity. WST-1 solution (Dojindo) was then added to each well and incubated at 37 °C for an additional 2 h. According to a previous study, cell viability was determined using the difference in absorbance at 450 and 620 nm as an indicator [37].

[4] = tested on: rat stomach; test: Histopathological examination of rat stomach / ulcerogenic effect; assay type: in vivo; settings: single dose 20 mg/kg orally
Method: Compounds 1–3 were examined for ulcerogenic effects in the rat stomach after showing anti-inflammatory advantages in a rat paw test. Rats were deprived for 24 h at 25 °C with a 12 h light/dark cycle. Indomethacin was used as a control. All compounds were given in a single dose of 20 mg/kg orally. After 24 h, the rats were slaughtered, and their stomachs were removed and washed with normal saline. Binocular magnification was used to inspect each group’s stomachs for the existence of a gastric lesion on the mucosa. Following that, the stomachs were kept in 10% w/v formalin for histological investigation, as previously described.

[5] = target: T1, COX-2 (Homo sapiens, UniProt P35354); test: COX-2 inhibitor screening assay kit (Cayman); assay type: biochemical; settings: for IC50: three separate experiments
T1 construct: purchased Cayman Chemical (Ann Arbor, MI, USA)
T1 sequence (P35354 18-604): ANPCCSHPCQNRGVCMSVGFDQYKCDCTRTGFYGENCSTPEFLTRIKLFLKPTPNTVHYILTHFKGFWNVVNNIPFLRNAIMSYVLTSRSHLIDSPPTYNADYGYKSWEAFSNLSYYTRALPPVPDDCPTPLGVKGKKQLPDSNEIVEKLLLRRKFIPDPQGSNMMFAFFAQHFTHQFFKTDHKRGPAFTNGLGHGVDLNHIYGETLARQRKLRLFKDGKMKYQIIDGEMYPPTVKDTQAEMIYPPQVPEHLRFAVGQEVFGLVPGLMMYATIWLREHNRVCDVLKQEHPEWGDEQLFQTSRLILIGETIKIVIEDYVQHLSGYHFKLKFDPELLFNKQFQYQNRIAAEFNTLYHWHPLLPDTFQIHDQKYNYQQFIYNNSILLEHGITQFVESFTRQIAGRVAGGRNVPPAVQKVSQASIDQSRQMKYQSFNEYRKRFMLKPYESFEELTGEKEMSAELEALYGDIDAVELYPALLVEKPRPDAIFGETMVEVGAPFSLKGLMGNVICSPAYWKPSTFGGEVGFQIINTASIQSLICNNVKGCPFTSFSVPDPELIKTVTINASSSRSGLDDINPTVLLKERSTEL
Method: The test chemicals’ capacity to inhibit the conversion of arachidonic acid to prostaglandin was determined. In test tubes, 25 mM Tris–HCl, pH 8.0, containing 5 mM EDTA, phenol, and 1 mM hematin, was added. The test compounds were dissolved in dimethyl sulfoxide and added in concentrations ranging from 0.005–200 µM. Dimethyl sulfoxide alone was applied to control test containers. COX-1 or COX-2 enzymes were added to test tubes and preincubated for 10 min at 37 °C. The arachidonic acid substrate was added, and the tubes were incubated at 37 °C for 2 min. The compound immunochemical assay was used to calculate the amount of prostaglandin produced. Three separate experiments were used to calculate the IC50 values. The selectivity index was calculated as follows:(1) Selectivity index=IC50COX−1/IC50COX−2

SMILES | rat paw histopathology, H&E: edema and inflammatory cell infiltration [1] | rat paw collagen deposition, Masson's Trichrome stain ([1]; 10× magnification) | rat paw histopathology, H&E ([1]; 10× magnification) | rat paw histopathology, H&E ([1]; 40× magnification) | rat paw edema size [2] | effect on WST1 values (cell viability) and cell morphology [3] | rat stomach collagen deposition, Masson's Trichrome ([4]; 10× magnification) | rat stomach histopathology, H&E ([4]; 10× magnification) | rat stomach collagen deposition, Masson's Trichrome ([4]; 40× magnification) | rat stomach histopathology, H&E ([4]; 40× magnification) | rat paw collagen deposition, Masson's stain [1] | SI (selectivity index = IC50 COX-1/IC50 COX-2) [5] | IC50 [5] [nM] | rat stomach collagen deposition, Masson's Trichrome [4] | rat paw edema [2]
Cc1cccc2[nH]c(C3CCCN(C(=O)c4ccccc4NCC(=O)O)C3)nc12 (stereo not drawn) [Compound 1, [(2-{[3-(4-methyl-1H-benzimidazol-2-yl)piperidin-1-yl]carbonyl}phenyl)amino]acetic acid] | marked improvement in the degree of edema and the inflammatory cell infiltration | slight collagen deposition | significant decrease in the dermal thickness, inflammatory reaction in the deep dermis (black star), and moderate improvements in edema | slight inflammatory reaction (black star) and edema | significantly reduced rat paw size | non-cytotoxic | normal collagen deposition | normal gastric layers | normal collagen deposition | absence of any signs of an inflammatory reaction |  |  |  |  | 
CCOC(=O)c1cn(-c2cc(C#N)ccc2O)cc(Oc2ccccc2)c1=O [Compound 2, ethyl 1-(5-cyano-2-hydroxyphenyl)-4-oxo-5-phenoxy-1,4-dihydropyridine-3-carboxylate] | marked anti-inflammatory effect and a pronounced decline in edema and inflammatory cell invasion | slight collagen deposition | substantial decrease in both the inflammatory reaction (black star) and edema | slight inflammatory reaction (black star) and edema | significantly reduced rat paw size | non-cytotoxic | slight collagen deposition | normal gastric layers | slight collagen deposition | absence of any signs of an inflammatory reaction | lowest |  |  |  | 
O=C(O)[C@H]1C[C@@H](C(=O)NC2CC2)CN(C(=O)c2ccc3[nH]nnc3c2)C1 [Compound 3] | weaker action than compounds 1 and 2 manifested by a moderate increase in cell infiltration and edema | significant collagen deposition | significant decrease in the degree of inflammatory reaction (black star) and a moderate decrease in edema | moderate inflammatory reaction (black star) and edema | significantly reduced rat paw size |  | significant collagen deposition | slight degeneration of gastric layers | significant collagen deposition | absence of any signs of an inflammatory reaction |  | 194.9 and 194.91 | 60 ± 3 | mild increase in collagen deposition | 
COc1ccc(CN(Cc2ccc(F)cc2)CC2CCCO2)cc1CO (stereo not drawn) [Compound 4] |  |  |  |  |  |  |  |  |  |  |  | 36.3 | 210 ± 10 |  | 
COc1cccc(-c2nn(-c3ccccc3)cc2CN(C)CCc2cn[nH]c2)c1 [Compound 5] |  |  |  |  |  |  |  |  |  |  |  | 132.64 | 80 ± 9 |  | 
O=C(O)CC1COCCN1Cc1cccc(-c2ccccn2)c1 (stereo not drawn) [Compound 6] |  |  |  |  |  |  |  |  |  |  |  | 190.88 | 60 ± 75 |  | 
O=C(O)COc1ccc(Cl)cc1C1CC(=O)Nc2cc3[nH]ncc3cc21 (stereo not drawn) [Compound 7] |  |  |  |  |  |  |  |  |  |  |  | 95.068 | 97 ± 15 |  | 
O=C(O)Cc1ccccc1Nc1c(Cl)cccc1Cl [Diclofenac, reference compound] |  |  |  |  |  |  |  |  |  |  |  |  |  |  | dramatically reduced rat paw edema
COc1ccc2c(c1)c(CC(=O)O)c(C)n2C(=O)c1ccc(Cl)cc1 [Indomethacin, reference compound] |  | slight collagen deposition | significant decrease in the degree of inflammatory reaction (black star) and a moderate decrease in edema | slight inflammatory reaction (black star) and edema |  |  | significant collagen deposition | slight degeneration of gastric layers | collagen deposition | absence of any signs of an inflammatory reaction |  |  |  | mild increase in collagen deposition | dramatically reduced rat paw edema

Source: paper PMC8955829, “Drug Discovery of New Anti-Inflammatory Compounds by Targeting Cyclooxygenases” (Pharmaceuticals, 2022)
